Key:
[1] = Lipophilicity parameter logPow by RP-HPLC run time method (OECD guideline); type: physicochemical; conditions: C18 stationary phase, methanol/buffer pH 7.4, isocratic
Method: The lipophilicity parameters logPow (Table I) were determined as specified by OECD directive test guidelines using the RP-HPLC run time method.
To this end, a logk′/logPow correlation curve based on ten reference substances was plotted and validated with the aid of the lipophilicity parameters of eight comparative substances, which had been established by the extraction method.
A commercially available reversed-phase C18 stationary phase was used as stationary phase. Chromatographic separation was carried out with methanol and a buffer solution as mobile phase at pH 7.4 under isocratic conditions.
The retention times of the standards tR were converted in accordance with equation Φ into the capacity factors k′, where t0, as […] of the solvent unretarded on the reversed-phase C18 stationary phase, represents the dead time of the chromatographic system:
The linear correlation of the logk′ values with the logPow values of the standards published in the appendix to the Directive 92/69/EEC yields the correlation curve through linear regression.
The lipophilicity parameters logPow of the analytes were interpolated from the correlation curve of the standards after calculation of the logarithmic capacity logk′.
The validation of the RP-HPLC analytical method described, and of the standards used, is carried out with the aid of eight comparison active compounds, the distribution behavior of which was determined with the aid of the extraction method.

melting point	logPow [1]	SMILES
209 °C	–	C[C@H](Nc1nc(-n2cccn2)nc(Cl)c1-c1c(F)cc(F)cc1F)C(F)(F)F [I-2, (S)-6-Chloro-4-(2,2,2-trifluoro-1-methylethyl)amino-5-(2,4,6-trifluorophenyl)-2-(1-pyrazolyl)pyrimidine]
172 to 173 °C	–	C[C@H](Nc1nc(-n2ccnc2)nc(Cl)c1-c1c(F)cc(F)cc1F)C(F)(F)F [I-3, (S)-6-Chloro-4-(2,2,2-trifluoro-1-methylethyl)amino-5-(2,4,6-trifluorophenyl)-2-(1-imidazolyl)pyrimidine]
176 to 177 °C	–	C[C@H](Nc1nc(-n2cncn2)nc(Cl)c1-c1c(F)cc(F)cc1F)C(F)(F)F [I-4, (S)-6-Chloro-4-(2,2,2-trifluoro-1-methylethyl)amino-5-(2,4,6-trifluorophenyl)-2-(1,2,4-triazol-1-yl)pyrimidine]
–	logPow 3.86	CCN(CC)c1nc(-c2ncccn2)nc(Cl)c1-c1c(F)cccc1Cl [I-9]
–	logPow 3.15	CC(C)Nc1nc(-c2ncccn2)nc(Cl)c1-c1c(F)cc(F)cc1F [I-11]
–	logPow 4.49	CCN(CC)c1nc(-c2cnccn2)nc(Cl)c1-c1c(F)cccc1Cl [I-14]
–	logPow 4.7	CC(C)Nc1nc(-c2cnccn2)nc(Cl)c1-c1c(F)cc(F)cc1F [I-18]
–	logPow 4.41	CCN(CC)c1nc(-c2cnccn2)nc(Cl)c1-c1c(F)cc(F)cc1F [I-20]
–	logPow 4.48	CC(C)N(C)c1nc(-c2cnccn2)nc(Cl)c1-c1c(F)cc(F)cc1F [I-21]
–	logPow 4.72	CC(C)(C)CNc1nc(-c2cnccn2)nc(Cl)c1-c1c(F)cc(F)cc1F [I-22]

Reference: patent publication US7709637B2, “5-phenylpyrimidines, their preparation, intermediates for their preparation, and their use for controlling harmful fungi” (BASF SE, priority 2001, dated 2010)
